The source of these data is ChEMBL document CHEMBL5528001, “Synthetic product-based approach toward potential antileishmanial drug development” (Eur J Med Chem, 2024).

The test system of one data set is Leishmania aethiopica. The data set is described as follows: Antileishmanial activity against Leishmania aethiopica amastigotes assessed as inhibition of parasite growth measured after 24 hrs by Alamar blue based analysis. The format is functional, organism-based. (Alamar Blue is a resazurin reagent that responds to reducing activity.)
Data set [1] deals with Leishmania major. The data set is described as follows: Antileishmanial activity against Leishmania major assessed as reduction in parasite growth. The data set is classed as functional, organism-based.
For data set [2], the system named is Leishmania donovani. The data set is described as follows: Antileishmanial activity against Leishmania donovani amastigotes infected in J774.A1 macrophage assessed as inhibition of parasite growth by luciferase assay. The format is functional, organism-based.
The test system of data set [3] is Leishmania donovani. The data set is described as follows: Antileishmanial activity against Leishmania donovani amastigotes infected in human THP-1 cells assessed as inhibition of parasite infection incubated for 72 hrs by DAPI staining based assay. The note with it: THP-1, 72 h. The format is functional, organism-based.
Data set [4] in a line: Selectivity index, ratio of CC50 for human HepG2 cells to EC50 for GFP-expressing Leishmania infantum intracellular amastigotes infected in human THP-1 derived macrophage cells. The data set is classed as toxicity, cell-based. The note with it: read-out: Ratio CC50/EC50.
Another data set deals with Leishmania tropica. The data set is described as follows: Antileishmanial activity against Leishmania tropica promastigotes incubated for 24 hrs measured by alamar blue staining based fluorescence analysis. The data set is classed as functional, organism-based.
Data set [5] concerns HepG2. The data set is described as follows: Antiproliferative activity against human HepG2 cells assessed as reduction in cell viability incubated for 72 hrs by MTT assay. The format is functional, cell-based. As to conditions: HepG2, 72 h.
In data set [6] the test system is Leishmania donovani. The data set is described as follows: Antileishmanial activity against Leishmania donovani amastigotes assessed as parasite growth inhibition incubated for 72 hrs by MTS assay. The format is functional, organism-based. Background: Tetrazolium dyes change colour on reduction, which living cells bring about.
For data set [7], the system named is Leishmania donovani. The data set is described as follows: Antileishmanial activity against Leishmania donovani amastigotes. The format is functional, organism-based.
The nature of data set [8]: Cytotoxicity against HEK293 cells assessed as reduction in cell viability incubated for 6 days by CellTiter-Glo luminescent cell viability assay. The format is toxicity, cell-based. The note with it: human. (In ATP-based viability assays light output follows the ATP content of the culture.)
The test system of another data set is Leishmania mexicana. The data set is described as follows: Antileishmanial activity against Leishmania mexicana promastigotes. The data set is classed as functional, organism-based.
Data set [9] relates to Leishmania donovani. The data set is described as follows: Antileishmanial activity against Leishmania donovani MHOM/SD/62/1S assessed as inhibition of parasite growth by resazurin/alamar blue fluorometric assay. The data set is classed as functional, organism-based.
For data set [10], the system named is Leishmania major. The data set is described as follows: Antileishmanial activity against Leishmania major IR-173 promastigotes assessed as inhibition of parasite growth incubated for 48 hrs by resazurin dye based assay. The format is functional, organism-based. The note with it: IR-173, 48 h.
Data set [11] concerns Leishmania donovani. The data set is described as follows: Antileishmanial activity against Leishmania donovani 9515 promastigotes assessed as inhibition of parasite growth incubated for 48 hrs by resazurin dye based assay. The data set is classed as functional, organism-based. The note with it: Leishmania donovani, 9515, 48 h.
In data set [12] the test system is Leishmania major. The data set is described as follows: Antileishmanial activity against Leishmania major amastigotes assessed as reduction in parasite growth incubated for 48 hrs by resazurin dye based analysis. The format is functional, organism-based.
Data set [13] concerns Leishmania donovani. The data set is described as follows: Antileishmanial activity against Leishmania donovani MHOM/SD/62/1S-CL2D promastigotes assessed as reduction in parasite growth incubated for 24 hrs by resazurin dye based analysis. The data set is classed as functional, organism-based.
In data set [14] the test system is Leishmania infantum. The data set is described as follows: Antileishmanial activity against Leishmania infantum MHOM/BR/1972/BH46 promastigotes assessed as reduction in parasite viability measured for 48 hrs by PI staining based flow cytometry analysis. The data set is classed as functional, organism-based. As to conditions: MHOM/BR/1972/BH46, 48 h.
For data set [15], the system named is Leishmania infantum. The data set is described as follows: Antileishmanial activity against Leishmania infantum MHOM/BR/1972/BH46 amastigotes assessed as reduction in cell viability measured for 48 hrs by PI staining based flow cytometry analysis. The data set is classed as functional, organism-based. As to conditions: MHOM/BR/1972/BH46, 48 h.
The next data set relates to Leishmania amazonensis. The data set is described as follows: Antileishmanial activity against Leishmania amazonensis promastigotes assessed as inhibition of parasite growth. The data set is classed as functional. The arrangement: scale not given: the % may be the effect or the level left.
Data set [16] relates to Leishmania donovani. The data set is described as follows: Antileishmanial activity against Leishmania donovani promastigotes assessed as parasite growth inhibition incubated for 72 hrs by alamar blue staining based assay. The data set is classed as functional, organism-based.
For the next data set, the system named is J774.A1. The data set is described as follows: Cytotoxicity against mouse J774.A1 cells assessed as reduction in cell viability incubated for 72 hrs by MTT assay. The format is functional.
The test system of data set [17] is Leishmania infantum. The data set is described as follows: Antileishmanial activity against Leishmania infantum promastigote assessed as reduction in parasite growth after 72 hrs by MTT assay. The data set is classed as functional, organism-based.
Another data set deals with Leishmania braziliensis. The data set is described as follows: Antileishmanial activity against Leishmania braziliensis MHOM/BR/75/M2903 strain promastigotes assessed as reduction in cell viability incubated for 48 hrs by MTT assay. The note with it: MHOM/BR/75/M2903, 48 h. The data set is classed as functional, organism-based.
Data set [18] relates to Leishmania donovani. The data set is described as follows: Antileishmanial activity against Leishmania donovani promastigotes assessed as inhibition of parasite growth. The data set is classed as functional, organism-based.
The test system of data set [19] is Leishmania donovani. The data set is described as follows: Antileishmanial activity against Leishmania donovani MHOM/IN/00/DEVI assessed as inhibition of parasite growth measured for 48 hrs by MTT assay. The data set is classed as functional, organism-based.
Data set [20] deals with HepG2. The data set is described as follows: Cytotoxicity against human HepG2 cells assessed as reduction in cell growth measured after 48 hrs by SRB assay. The data set is classed as functional.
Data set [21] has as its system Leishmania donovani. The data set is described as follows: Antileishmanial activity against Leishmania donovani promastigotes assessed as parasitic proliferation inhibition incubated for 3 days by resazurin dye based assay. The note with it: Leishmania donovani, 72 h; read-out: IC50. The data set is classed as functional, organism-based.

pEC50, pIC50: −log10 of the molar value. In brackets after ≈: the same amount, converted by molar mass.

`c1ccc(-c2nn(-c3ccccc3)cc2C2=NCCS2)cc1`: the IC50 in the data set on Leishmania aethiopica was 1.02 µg/mL (≈ 3.34 µM).
On the same count and under the same terms, next, `Cc1ccc(-n2cc(C3=NCCS3)c(-c3ccccc3)n2)cc1`: 1.02 µg/mL (≈ 3.19 µM).
As to `Cc1ccc2nc(C)c(C(=O)N3CCN(Cc4cn(-c5ccc(C(C)(C)C)cc5)nn4)CC3)n2c1`, the pIC50 in the data set with Leishmania major [1] is 4.82.
On to `O=C(c1ccccc1)N1N=C(c2ccccc2)CC1c1cn(-c2ccc(Cl)cc2)nc1-c1ccccc1` (stereo not drawn), for which the negative logarithm of the IC50 (pIC50) with Leishmania donovani [2] was 7.10; in the data set with Leishmania donovani [3] it was 6.06.
Regarding `Nc1ccn(C(=O)C2CCC3(CC2)OOC2(O3)C3CC4CC(C3)CC2C4)n1` (stereo not drawn), the selectivity ratio in [4] is less than 5. Besides, the pIC50 in the data set on Leishmania tropica is 3.79.
Take `Cc1nc2c3ccccc3c3ccccc3n2c1C(=O)NCc1cn(-c2cccc([N+](=O)[O-])c2)nn1`: the negative-log EC50 (pEC50) in the data set with HepG2 [5] is greater than 4.52.
As for `CCCCCCCn1cc(CN2C(=O)CN(/N=C/c3ccc([N+](=O)[O-])o3)C2=O)nn1`, the pIC50 with Leishmania donovani [6] is 6.74; in the data set on Leishmania donovani [7] it was 6.42. Further, the IC50 at 6 days in data set [8] was greater than 100 µM.
In the case of `COc1cc(C(=O)/C=C/c2cccc([N+](=O)[O-])c2)ccc1OCC=C(C)C`, the pIC50 in the data set on Leishmania mexicana was 5.34.
For the compound `O=C(N/N=C/c1ccc([N+](=O)[O-])o1)c1ccc(OCc2ccccc2)cc1`, the values for the pIC50 in the data set on Leishmania donovani [9], with Leishmania major [10] and with Leishmania donovani [11] were 5.34, 4.41 and 5.35, respectively.
Consider `CC(C)(C)c1ccc(COc2ccc(C(=O)N/N=C\c3ccc([N+](=O)[O-])o3)cc2)cc1`, for which the pIC50 in the data set on Leishmania major [12] is 6.72.
Take `CCCCCCCCCCCCCCCC(=O)CC(=O)N1CCC[C@@H]1COP(=O)([O-])OCC[N+](C)(C)C`: the pIC50 in the data set on Leishmania donovani [13] was 4.55.
On to `COc1cc(C(=O)/C=C/c2ccc([N+](=O)[O-])cc2)ccc1OCC=C(C)C`, for which the pIC50 in the data set with Leishmania mexicana was 5.09.
Regarding `CCCc1cc(OC)c2oc(=O)c(C(=O)c3ccc([N+](=O)[O-])cc3)cc2c1`, the pIC50 in the data set on Leishmania infantum [14] was 4.92; in the data set on Leishmania infantum [15], 5.17.
Turning to `O=C1NC(=S)N2CCCC12` (stereo not drawn), the Activity in the data set with Leishmania amazonensis was 20%.
In the case of `CC(C)c1ccc(COc2ccc(C(=O)N/N=C\c3ccc([N+](=O)[O-])o3)cc2)cc1`, the pIC50 in the data set with Leishmania major [12] is 6.21.
In the case of `CCc1ccc(-n2cc(CN3CCN(C(=O)c4c(C)nc5ccc(Cl)cn45)CC3)nn2)cc1`, in the data set on Leishmania major [1], the pIC50 is 4.82.
Take `COc1ccc2nc(C(=O)NCCCN(C)C)ccc2c1`: the pIC50 in the data set with Leishmania donovani [16] was 5.10.
Take `NC(=O)[C@@H]1CSC(c2cn(-c3ccccc3)nc2-c2ccccc2)N1` (stereo partly drawn): in the data set on Leishmania aethiopica, the IC50 came to 1.02 µg/mL (≈ 2.91 µM).
Regarding `CC1(C)CC(=O)c2cc(CNC(=O)C/C=C/c3ccccc3)ccc2S1`, the CC50 with J774.A1 was 31.6 µM. In addition, the pIC50 in the data set on Leishmania infantum [17] is 4.98.
With `COc1ccc(-n2cc(CCC(=O)OC3=C(C=C(C)C)C(=O)c4ccccc4C3=O)nn2)cc1`, the pIC50 in the data set on Leishmania braziliensis is 4.80.
As for `CCCn1c(C)cc(O)c(C(=O)Nc2ccc(Br)cc2)c1=O`, the pIC50 in the data set with Leishmania donovani [18] is 4.26.
For `C(=N/CCCN(N1CCOCC1)N1CCOCC1)/c1cc(-c2ccccc2)c2ccc3c(-c4ccccc4)cc(/C=N/CCCN(N4CCOCC4)N4CCOCC4)nc3c2n1`, the pIC50 in the data set with Leishmania donovani [19] is 5.60. Moreover, the CC50 with HepG2 [20] turned out to be 1640 nM.
For the compound `Cc1nc2ccc(Cl)cn2c1C(=O)N1CCN(Cc2cn(-c3ccc(Cl)cc3)nn2)CC1`, the pIC50 in the data set on Leishmania major [1] is 4.82.
As for `CCCC(=O)N1N=C(c2ccccc2)CC1c1cn(-c2ccc(Cl)cc2)nc1-c1ccccc1` (stereo not drawn), the pIC50 with Leishmania donovani [2] is 6.05; with Leishmania donovani [3], 5.84.
On to `Cc1ccc(-n2cc(C3N[C@H](C(N)=O)CS3)c(-c3ccccc3)n2)cc1` (stereo partly drawn), for which the IC50 in the data set on Leishmania aethiopica was 1.02 µg/mL (≈ 2.8 µM).
Consider `C(=N/CCCN(N1CCCCC1)N1CCCCC1)/c1cc(-c2ccccc2)c2ccc3c(-c4ccccc4)cc(/C=N/CCCN(N4CCCCC4)N4CCCCC4)nc3c2n1`, for which the pIC50 in the data set with Leishmania donovani [19] was 5.60. Besides, in the data set on HepG2 [20], the CC50 amounted to 1640 nM.
For `CCOC(=O)C1=CNC(=O)NC1c1ccc(C)cc1` (stereo in doubt; 80), the IC50 with Leishmania donovani [21] was 29.3 µg/mL (≈ 113 µM).

In general, IC50 refers to the concentration that gives 50% inhibition. For orientation: pIC50 means the IC50 on a negative log10 scale, so that one unit is a factor of ten. Usually pEC50 stands for −log10 of the EC50, conventionally taken in molar units. As usually defined, the CC50 is the concentration that lowers cell viability or growth by half.
